Measurements published in PMC9868654, “Discovery of a potent olaparib–chlorambucil hybrid inhibitor of PARP1 for the treatment of cancer” (Frontiers in Pharmacology, 2023).

Assays:
8226 cells = assay: In vitro antiproliferative assay (CCK-8); format: cell-based; conditions: 8226, without BRCA mutations; CCK-8, 72 h; mean of three
Procedure: (§1) The proliferation of cancer cells was tested by CCK-8 assay. Briefly, cells were seeded in 96-well plates at approximately 5 × 10^3 cells per well. The cells were treated with test compounds after 24 h of incubation. CCK-8 reagent ([…]) was added to each well after 72 h of incubation, and the cells were then incubated at 37°C for 4 h. The light absorbance at 450 nm was measured using an Opsys microplate reader (Dynex Technologies, Chantilly, VA, United States). Results are illustrated as percentage viability normalized to DMSO-treated control cells.

A549 cells = assay: In vitro antiproliferative assay (CCK-8); format: cell-based; conditions: Homo sapiens; A549, without BRCA mutations; CCK-8, 72 h; mean of three
Procedure: as §1

B16 cells = assay: In vitro antiproliferative assay (CCK-8); format: cell-based; conditions: Mus musculus; B16, without BRCA mutations; CCK-8, 72 h; mean of three
Procedure: as §1

CH151 cells = assay: In vitro antiproliferative assay (CCK-8); format: cell-based; conditions: CH151, without BRCA mutations; CCK-8, 72 h; mean of three
Procedure: as §1

Capan-1 cells = assay: In vitro antiproliferative assay (CCK-8); format: cell-based; conditions: Homo sapiens; Capan-1, BRCA-mutated; CCK-8, 72 h; mean of three
Procedure: as §1

HCC1937 cells = assay: In vitro antiproliferative assay (CCK-8); format: cell-based; conditions: Homo sapiens; HCC1937, BRCA-mutated; CCK-8, 72 h; mean of three
Procedure: as §1

Hela cells = assay: In vitro antiproliferative assay (CCK-8); format: cell-based; conditions: Homo sapiens, without BRCA mutations, CCK-8, 72 h, mean of three
Procedure: as §1

K562 cells [1] = assay: In vitro antiproliferative assay (CCK-8); format: cell-based; conditions: Homo sapiens; K562, without BRCA mutations; CCK-8, 72 h; mean of three
Procedure: as §1

MCF-7 cells = assay: In vitro antiproliferative assay (CCK-8); format: cell-based; conditions: Homo sapiens, MCF7; MCF-7, without BRCA mutations; CCK-8, 72 h; mean of three
Procedure: as §1

MDA-MB-231 cells = assay: In vitro antiproliferative assay (CCK-8); format: cell-based; conditions: Homo sapiens; MDA-MB-231, without BRCA mutations; CCK-8, 72 h; mean of three
Procedure: as §1

MDA-MB-436 cells = assay: In vitro antiproliferative assay (CCK-8); format: cell-based; conditions: Homo sapiens; MDA-MB-436, BRCA-mutated; CCK-8, 72 h; mean of three
Procedure: as §1

Raji cells = assay: In vitro antiproliferative assay (CCK-8); format: cell-based; conditions: Homo sapiens, without BRCA mutations, CCK-8, 72 h, mean of three
Procedure: as §1

SKOV3 cells = assay: In vitro antiproliferative assay (CCK-8); format: cell-based; conditions: Homo sapiens, SK-OV-3; SKOV3, without BRCA mutations; CCK-8, 72 h; mean of three
Procedure: as §1

SW620 cells = assay: In vitro antiproliferative assay (CCK-8); format: cell-based; conditions: Homo sapiens, SW-620; SW620, without BRCA mutations; CCK-8, 72 h; mean of three
Procedure: as §1

U251 cells = assay: In vitro antiproliferative assay (CCK-8); format: cell-based; conditions: Homo sapiens, U-251; U251, without BRCA mutations; CCK-8, 72 h; mean of three
Procedure: as §1

U87 cells = assay: In vitro antiproliferative assay (CCK-8); format: cell-based; conditions: Homo sapiens, U-87 MG; U87, without BRCA mutations; CCK-8, 72 h; mean of three
Procedure: as §1

K562 cells [2] = assay: Cell cycle analysis (PI staining, flow cytometry); format: cell-based; conditions: for effect on cell cycle (in words): K562, 24 h, C2 1.25–5.0 µM, olaparib and chlorambucil 2.5–10 µM
Procedure: K562 and HCC1937 cells were incubated with different doses of molecule C2, olaparib, or chlorambucil for 24 h. After treatment, cells were collected and fixed with 70% pre-chilled ethanol in PBS and stored at −20°C overnight. The cells were then washed twice with PBS, incubated with 100 μg/ml RNase I (Solarbio, China) at 37°C for 1 h, and stained with propidium iodide (PI, 10 μg/ml, Solarbio, China) for 30 min, in the dark, at room temperature. Finally, the DNA content was measured using flow cytometry (FACSAria III, Becton Dickinson, United States). The data were analyzed and fitted using ModFit software.

K562 cells [3] = assay: Cell apoptosis analysis (Annexin V-BV421/7-AAD, flow cytometry); format: cell-based; conditions: 24 h, control .90%
Procedure: K562 cells were treated with various concentrations of molecule C2, olaparib, or chlorambucil for 24 h. Cells were then harvested and washed twice with PBS and then resuspended with binding buffer (Becton Dickinson, United States). Cells were incubated with Annexin V-BV421 (Becton Dickinson, United States) and 7-AAD (Becton Dickinson, United States) for double labeling for 30 min, in the dark, at room temperature, followed by analysis using flow cytometry (FACSAria III, Becton Dickinson, United States). The data were analyzed using FlowJo v10 software.

[4] = set-up: method as in Gala et al., 2020; conditions: in both aqueous and lipophilic solutions; ref Gala et al., 2020; cited from earlier work
[5] = set-up: method as in Jackson and Chester, 2015; conditions: ref Jackson and Chester, 2015; cited from earlier work
PARP1 = PARP1 (Homo sapiens, UniProt P09874); assay: PARP1 enzyme inhibitory assay; format: biochemical; conditions: Table 2, B and C series; mean of three experiments
PARP1, sequence (P09874 whole entry): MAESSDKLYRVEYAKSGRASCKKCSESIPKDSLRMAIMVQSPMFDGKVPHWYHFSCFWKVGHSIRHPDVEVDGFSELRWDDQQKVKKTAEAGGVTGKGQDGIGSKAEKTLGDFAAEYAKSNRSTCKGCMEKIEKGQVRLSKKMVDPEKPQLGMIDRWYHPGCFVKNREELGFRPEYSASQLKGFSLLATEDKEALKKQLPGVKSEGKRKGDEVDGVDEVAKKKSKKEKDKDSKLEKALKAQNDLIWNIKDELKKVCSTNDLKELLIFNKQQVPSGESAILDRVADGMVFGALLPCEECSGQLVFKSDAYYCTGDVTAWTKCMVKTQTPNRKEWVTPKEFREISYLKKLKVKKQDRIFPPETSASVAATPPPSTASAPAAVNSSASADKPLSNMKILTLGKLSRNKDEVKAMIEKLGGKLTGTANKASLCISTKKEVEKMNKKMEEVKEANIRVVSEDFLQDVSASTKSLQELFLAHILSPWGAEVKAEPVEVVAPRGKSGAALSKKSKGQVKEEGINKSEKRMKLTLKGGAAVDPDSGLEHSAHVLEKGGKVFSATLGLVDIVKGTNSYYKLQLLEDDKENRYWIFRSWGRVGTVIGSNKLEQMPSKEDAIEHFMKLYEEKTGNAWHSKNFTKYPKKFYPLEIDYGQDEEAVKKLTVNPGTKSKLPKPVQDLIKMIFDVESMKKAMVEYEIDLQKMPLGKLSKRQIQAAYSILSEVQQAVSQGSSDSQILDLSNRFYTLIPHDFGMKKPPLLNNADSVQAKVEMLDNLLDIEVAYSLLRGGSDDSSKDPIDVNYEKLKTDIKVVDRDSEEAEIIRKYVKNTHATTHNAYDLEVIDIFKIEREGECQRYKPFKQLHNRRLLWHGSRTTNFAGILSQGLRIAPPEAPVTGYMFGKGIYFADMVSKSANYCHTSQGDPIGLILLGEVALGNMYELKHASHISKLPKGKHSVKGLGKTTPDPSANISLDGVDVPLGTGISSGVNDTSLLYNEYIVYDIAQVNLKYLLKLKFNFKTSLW

SMILES | IC50 (8226 cells) | IC50 (A549 cells) | IC50 (B16 cells) | IC50 (CH151 cells) | IC50 (Capan-1 cells) | IC50 (HCC1937 cells) | IC50 (Hela cells) | IC50 (K562 cells [1]) | IC50 (MCF-7 cells) | IC50 (MDA-MB-231 cells) | IC50 (MDA-MB-436 cells) | IC50 (Raji cells) | IC50 (SKOV3 cells) | IC50 (SW620 cells) | IC50 (U251 cells) | IC50 (U87 cells) | effect on cell cycle (in words) (K562 cells [2]) | percentage of apoptotic cells (apoptotic rate) (K562 cells [3]; K562, 5 μM) | percentage of apoptotic cells (apoptotic rate) (K562 cells [3]; K562, 10 µM) | further results
O=C(c1cc(Cc2n[nH]c(=O)c3ccccc23)ccc1F)N1CCN(C(=O)C2CC2)CC1 [Olaparib] | 66.8 ± 5.5 µM | 1.62 ± 0.11 µM | > 100 µM | 24.9 ± 1.5 µM | 0.129 ± 0.011 µM | 0.24 ± 0.01 µM | 11.6 ± 1.01 µM | 10.4 ± 0.72 µM | 30.6 ± 2.1 µM | 53.8 ± 3.6 µM | 0.047 ± 0.003 µM | 4.4 ± 0.33 µM | 12.8 ± 1.2 µM | 17.7 ± 1.2 µM | > 100 µM | 26 ± 1.2 µM | did not exhibit any effects | 1.53% | 1.91% | solubility [4]: low solubility; pharmacokinetics profiles and bioavailability [5]: relatively poor
O=C(O)CCCc1ccc(N(CCCl)CCCl)cc1 [Chlorambucil] | > 100 µM | 89.4 ± 3.4 µM | > 100 µM | > 100 µM | > 1 µM | > 1 µM | > 100 µM | > 20 µM | 19.5 ± 1.7 µM | 95.3 ± 5.7 µM | > 1 µM | 40.6 ± 3.6 µM | 3.98 ± 0.22 µM | 10 ± 1.01 µM | 21.1 ± 1.8 µM | > 100 µM | increased cell number at the G2/M phase in a dose-dependent manner | 2.49% | 2.96% | proportion of cells in the G2/M phase (K562 cells [2]; K562, 10 µM, 24 h): 61.60%
O=C(CCCc1ccc(N(CCCl)CCCl)cc1)N1CCN(C(=O)c2cc(Cc3n[nH]c(=O)c4ccccc34)ccc2F)CC1 [C2, 4-(3-(4-(4-(4-(Bis(2-chloroethyl)amino)phenyl)butanoyl)piperazine-1-carbonyl)-4-fluorobenzyl)phthalazin-1(2H)-one] | 3.62 ± 0.2 µM | 2.01 ± 0.13 µM | 11.7 ± 1.01 µM | 2.77 ± 0.13 µM | 0.086 ± 0.006 µM | 0.18 ± 0.01 µM | 1.65 ± 0.11 µM | 1.12 ± 0.08 µM | 2.28 ± 0.11 µM | 6.33 ± 0.35 µM | 0.013 ± 0.001 µM | 1.21 ± 0.02 µM | 4.04 ± 0.25 µM | 6.41 ± 0.46 µM | 2.58 ± 0.14 µM | 2.86 ± 0.01 µM | increased cell number at the G2/M phase in a dose-dependent manner | – | – | IC50 (PARP1): 0.0009 ± 8e-05 µM; percentage of apoptotic cells (apoptotic rate) (K562 cells [3]; K562, 1 μM): 10.96%; percentage of apoptotic cells (apoptotic rate) (K562 cells [3]; K562, 2 µM): 12.69%
